According to patent US12435060B2, “Acylamino bridged heterocyclic compound, and composition and application thereof” (BEIJING SCITECH-MQ PHARMACEUTICALS LIMITED, priority 2019, dated 2025):
pIC50: −log10 of the molar value.

Test system: HT29 cells
Assay: Inhibition of cell necrosis (CCK8 method), induced programmed necrosis of HT29 cells
Type: cell-based
Conditions: Homo sapiens, HT-29; rescue from necrosis induced by TNF-α 20 ng/mL, AT-406 1 μM, Z-VAD-FMK 20 μM; 16-20 hours; CCK-8, OD 450 nm
Experimental: Assay Example 2. Assay Method for Compounds Inhibiting Cell Necrosis (CCK8 Method)
In this assay example 2, under the condition of inducing programmed cell necrosis, different concentrations of the test compounds were added to test the IC50 of the rescue effect of the test compounds on the programmed necrosis.
• Compounds: Dissolved in DMSO to make a 10 mM solution; • TNF-α: The initial concentration was 100 μg/mL; • Z-VAD-FMK: Dissolved in DMSO to make a 10 mM solution; • AT-406: Dissolved in DMSO to make a 10 mM solution. I. Experimental Steps • 1) Compound dilution: All test compounds were dissolved in DMSO to prepare a 10 mM stock solution, and the first concentration gradient dilution of the test compounds was completed in DMSO. The gradient dilution factor was 4 times and 9 concentration gradients were made; A 40-fold overall dilution of all compounds was completed in the cell culture medium, and the resulting compound was 10× compound, which will be added to the wells of the 96-well plate containing cells, so that the final cell culture medium was 1× the designed final concentration. The general drug design is 9 concentration gradients, of which the highest final concentration is 25000 nM, the lowest concentration after 4-fold dilution of 9 concentrations is 0.38 nM, and the final concentration of DMSO in all wells is 0.25%. The compound dilution process is shown in FIG. 3. • 2) HT 29 cells in good growth condition were selected, trypsinized, the cells was collected by centrifugation, resuspended in McCOY's 5A complete medium (containing 10% FBS) and counted, and the number of cells and survival rate were recorded. • 3) Cells were inoculated to the 60 wells in the middle of the 96-well culture plate at a density of 12000 cells/80 μL/well, surrounding wells were filled with sterile water, and incubated overnight. • 4) 10 μL of the 10× compound diluted with the medium was added to the assay wells, 10 μL of McCOY's 5A complete medium containing 2.5% DMSO was added to the inducer-free wells and the control wells, mixed and shaked, and incubated for 30 minutes. • 5) Then 10 μL of inducer mixture (TNF-α, AT-406, Z-VAD-FMK with the final concentration of 20 ng/mL, 1 μM, 20 μM) was added into the assay wells and control wells. 10 μL McCOY's 5A complete medium was added to wells without inducer. Cells were cultured in an incubator with 5% CO2, at 37° C. • 6) After culturing for 16-20 hours, 10 μL of CCK-8 reagent was added to each well, and incubated for about 2 hours; • 7) The OD value was read at 450 nm on the multi-function plate reader. • 8) Data processing: Inhibition rate of necrosis (%)=100*(X−B)/(A−B) • A: The OD values of the wells without inducer (containing cells, CCK-8, without compound and inducer); • […]: OD values of assay wells (containing cells, CCK-8, compound, inducer); • B: OD values of control wells (containing cells, CCK-8, inducer, without compound). Then the value were imported into Graphpad Prism5 software for curve fitting and the IC50 values were calculated.

| Structure (SMILES) | pIC50 |
| --- | --- |
| Cc1ccc(OCCC2CCOCC2)cc1-c1ccnc(NC(=O)c2nnc(Cc3ccccc3)[nH]2)c1 [Example 87, 5-benzyl-N-(4-(2-methyl-5-(2-(tetrahydro-2H-pyran-4-yl)ethoxy)phenyl)pyridin-2-yl)-4H-1,2,4-triazole-3-carboxamide] | ≥ 7.00 |
| O=C(Nc1cc(-c2cc(OCC3CCOCC3)ccc2Cl)ccn1)c1nnc(CC2CCCCC2)[nH]1 [Example 402, N-(4-(2-chloro-5-((tetrahydro-2H-pyran-4-yl)methoxy)phenyl)pyridin-2-yl)-5-(cyclohexylmethyl)-4H-1,2,4-triazole-3-carboxamide] | ≥ 7.00 |
| O=C(Nc1cc(-c2cc(OCCCCCO)ccc2C(F)(F)F)ccn1)c1nnc(Cc2ccccc2)[nH]1 [Example 275, 5-benzyl-N-(4-(5-((5-hydroxypentyl)oxy)-2-(trifluoromethyl)phenyl)pyridin-2-yl)-4H-1,2,4-triazole-3-carboxamide] | ≥ 7.00 |
| Cc1ccc(OCCC2CCOCC2)cc1-c1cc(NC(=O)c2nnc(CC3CCCCC3)[nH]2)ncc1Cl [Example 252, N-(5-chloro-4-(2-methyl-5-(2-(tetrahydro-2H-pyran-4-yl)ethoxy)phenyl)pyridin-2-yl)-5-(cyclohexylmethyl)-4H-1,2,4-triazole-3-carboxamide] | ≥ 7.00 |
| Cc1ccc(OCCC2CCOCC2)cc1-c1ccnc(NC(=O)c2nnc(CC3CCCC3)[nH]2)c1 [Example 88, 5-(cyclopentylmethyl)-N-(4-(2-methyl-5-(2-(tetrahydro-2H-pyran-4-yl)ethoxy)phenyl)pyridin-2-yl)-4H-1,2,4-triazole-3-carboxamide] | ≥ 7.00 |
| CC(C)(O)COc1ccc(C(F)(F)F)c(-c2ccnc(NC(=O)c3nnc(Cc4ccccc4)[nH]3)c2)c1 [Example 264, 5-benzyl-N-(4-(5-(2-hydroxyl-2-methylpropoxy)-2-(trifluoromethyl)phenyl)pyridin-2-yl)-4H-1,2,4-triazole-3-carboxamide] | ≥ 7.00 |
| Cc1ccc(OCCN2CCCCC2)cc1-c1ccnc(NC(=O)c2nnc(Cc3cccc(Cl)c3F)[nH]2)c1 [Example 233, 5-(2-fluoro-3-chlorobenzyl)-N-(4-(2-methyl-5-(2-(piperidin-1-yl)ethoxy)phenyl)pyridin-2-yl)-4H-1,2,4-triazole-3-carboxamide] | 5.00 to 6.00 |
| Cc1ccc(OCCCC(C)(C)O)cc1-c1ccnc(NC(=O)c2nnc(CCC3CCCC3)[nH]2)c1 [Example 176, 5-(2-cyclopentylethyl)-N-(4-(5-((4-hydroxy-4-methylpentyl)oxy)-2-methylphenyl)pyridin-2-yl)-4H-1,2,4-triazole-3-carboxamide] | ≥ 7.00 |
| Cc1c(OCCCCO)cccc1-c1ccnc(NC(=O)c2nnc(Cc3ccccc3)[nH]2)c1 [Example 99, 5-benzyl-N-(4-(3-(4-hydroxybutoxy)-2-methylphenyl)pyridin-2-yl)-4H-1,2,4-triazole-3-carboxamide] | 6.00 to 7.00 |
| Cc1ccc(C(=O)NCCC(C)(C)O)cc1-c1ccnc(NC(=O)c2nnc(CC3CCCC3)[nH]2)c1 [Example 488, 5-(cyclopentylmethyl)-N-(4-(5-((3-hydroxyl-3-methylbutyl)carbamoyl)-2-methylphenyl)pyridin-2-yl)-4H-1,2,4-triazole-3-carboxamide] | ≥ 7.00 |
| CC(C)(C)OCCOc1ccc(Cl)c(-c2ccnc(NC(=O)c3nnc(CC4CCCC4)[nH]3)c2)c1 [Example 393, N-(4-(5-(2-(tert-butoxy)ethoxy)-2-chlorophenyl)pyridin-2-yl)-5-(cyclopentylmethyl)-4H-1,2,4-triazole-3-carboxamide] | ≥ 7.00 |
| COCCOc1ccccc1-c1ccnc(NC(=O)c2nnc(Cc3ccccc3)[nH]2)c1 [Example 126, 5-benzyl-N-(4-(2-(2-methoxyethoxy)phenyl)pyridin-2-yl)-4H-1,2,4-triazole-3-carboxamide] | 5.00 to 6.00 |
| COc1cccc(C)c1-c1ccnc(NC(=O)c2nnc(Cc3ccccc3)[nH]2)c1 [Example 92, 5-benzyl-N-(4-(2-methoxy-6-methylphenyl)pyridin-2-yl)-4H-1,2,4-triazole-3-carboxamide] | 6.00 to 7.00 |
| COCCOc1ccc(Cl)c(-c2ccnc(NC(=O)c3nnc(CC4CCCCC4)[nH]3)c2)c1 [Example 382, N-(4-(2-chloro-5-(2-methoxyethoxy)phenyl)pyridin-2-yl)-5-(cyclohexylmethyl)-4H-1,2,4-triazole-3-carboxamide] | ≥ 7.00 |
| O=C(Nc1cc(-c2cc(OCCC3CCOCC3)ccc2C(F)(F)F)ncn1)c1nnc(CC2CCCCC2)[nH]1 [Example 461, 5-(cyclohexylmethyl)-N-(6-(5-(2-(tetrahydro-2H-pyran-4-yl)ethoxy)-2-(trifluoromethyl)phenyl)pyrimidin-4-yl)-4H-1,2,4-triazole-3-carboxamide] | ≥ 7.00 |
| O=C(Nc1cc(-c2cc(OCCC3CCOCC3)ccc2F)ccn1)c1nnc(CC2CCCCC2)[nH]1 [Example 317, 5-(cyclohexylmethyl)-N-(4-(2-fluoro-5-(2-(tetrahydro-2H-pyran-4-yl)ethoxy)phenyl)pyridin-2-yl)-4H-1,2,4-triazole-3-carboxamide] | ≥ 7.00 |
| O=C(Nc1cc(-c2ccccc2Cl)ccn1)c1nnc(Cc2ccccc2)[nH]1 [Example 7, 5-benzyl-N-(4-(2-chlorophenyl)pyridin-2-yl)-4H-1,2,4-triazole-3-carboxamide] | 6.00 to 7.00 |
| CC(C)(O)CCCOc1ccc(F)c(-c2cc(NC(=O)c3nnc(Cc4ccccc4F)[nH]3)ncc2Cl)c1 [Example 320, N-(5-chloro-4-(2-fluoro-5-((4-hydroxy-4-methylpentyl)oxy)phenyl)pyridin-2-yl)-5-(2-fluorobenzyl)-4H-1,2,4-triazole-3-carboxamide] | 6.00 to 7.00 |
| Cc1ccccc1-c1cncc(NC(=O)c2nnc(Cc3ccccc3)[nH]2)c1 [Example 29, 5-benzyl-N-(5-(o-methylphenyl)pyridin-3-yl)-4H-1,2,4-triazole-3-carboxamide] | < 5.00 |
| CCC(O)(CC)CCCOc1ccc(Cl)c(-c2cc(NC(=O)c3nnc(Cc4ccccc4F)[nH]3)ncc2F)c1 [Example 415, N-(4-(2-chloro-5-((4-ethyl-4-hydroxyhexyl)oxy)phenyl)-5-fluoropyridin-2-yl)-5-(2-fluorobenzyl)-4H-1,2,4-triazole-3-carboxamide] | ≥ 7.00 |
| Cc1ccc(OC(C)C)cc1-c1cncc(NC(=O)c2nnc(Cc3ccccc3)[nH]2)c1 [Example 113, 5-benzyl-N-(5-(5-isopropoxy-2-methylphenyl)pyridin-3-yl)-4H-1,2,4-triazole-3-carboxamide] | < 5.00 |
| CC(C)(O)CCCOc1ccc(Cl)c(-c2ccnc(NC(=O)c3nnc(Cc4ccc(F)c(C(F)(F)F)c4)[nH]3)c2)c1 [Example 349, N-(4-(2-chloro-5-((4-hydroxy-4-methylpentyl)oxy)phenyl)pyridin-2-yl)-5-(4-fluoro-3-(trifluoromethyl)benzyl)-4H-1,2,4-triazole-3-carboxamide] | < 5.00 |
| Cc1ccc(OCCCC(C)(C)O)cc1-c1ccnc(NC(=O)c2nnc(Cc3cc(F)cc(F)c3)[nH]2)c1 [Example 200, 5-(3,5-difluorobenzyl)-N-(4-(5-((4-hydroxy-4-methylpentyl)oxy)-2-methylphenyl)pyridin-2-yl)-4H-1,2,4-triazole-3-carboxamide] | ≥ 7.00 |
| CC(C)(O)CCCOc1ccc(Cl)c(-c2ccnc(NC(=O)c3nnc(Cc4cc(F)cc(C(F)(F)F)c4)[nH]3)c2)c1 [Example 348, N-(4-(2-chloro-5-((4-hydroxy-4-methylpentyl)oxy)phenyl)pyridin-2-yl)-5-(3-fluoro-5-(trifluoromethyl)benzyl)-4H-1,2,4-triazole-3-carboxamide] | 5.00 to 6.00 |
| O=C(Nc1cc(-c2cc(OCCC3CCOCC3)ccc2Cl)ccn1)c1nnc(Cc2ccccc2F)[nH]1 [Example 404, N-(4-(2-chloro-5-(2-(tetrahydro-2H-pyran-4-yl)ethoxy)phenyl)pyridin-2-yl)-5-(2-fluorobenzyl)-4H-1,2,4-triazole-3-carboxamide] | ≥ 7.00 |
